For assay [1], the target named is T1, E. coli ITRS (isoleucyl-tRNA synthetase) (Escherichia coli, UniProt P00956).
T1 construct: endogenous in cells; enzyme partially purified in house
Kind of assay: 3H-isoleucine-based radiolabelled (standard radiometric) assay. The assay is classed as biochemical. The settings on record: for IC50: standard 3H-isoleucine radiometric assay, 10 μM isoleucine, 1 mM ATP, 37° C., read-out: Concentration giving 50% inhibition (I50); for Mode of inhibition: with respect to the amino acid substrate, Compound 1 at 0, 0.25 μM and 1.0 μM with varying 3H-isoleucine up to 100 μM. Here is the method: 2. Measurement of ITRS Activity using a ^3 H-Isoleucine-Based Radiolabelled Assay
The activity of ITRS during fractionation was monitored using conditions based on the method described by Steinmetz and Weil (7), and as described below. Stock reagents used in the method are as follows:
(§1) Prepared as described above. The specific activity of the enzyme used in the present example was approximately 145 nM of product formed/minute/mg, and was about 5%-10% active. The enzyme was diluted as appropriate. It will be appreciated that the enzyme amounts in the assay can be adjusted according to the purity of the enzyme used.
(§2) The assay mixture for a final volume of 200 μl was composed of:
The standard assay (in 200 μl) was carried out in quadruplicate in Eppendorf microcentrifuge tubes. The ingredients were preincubated for 2-3 minutes at 37° C., and the reaction started by addition of approximately 20 μl of the appropriately diluted enzyme extract as described above.
The final reaction contained reagents in the following concentrations:
0.1% bovine serum albumin
10 μM Isoleucine containing ^3 H-Ile
The assay was incubated at 37° C. for 20 minutes, and stopped by addition of 50 μl 20% TCA, and the tubes placed on ice.
200 μl of the reaction mixture was pipetted onto 1.5 cm^2 cellulose 3MM filters. The filters were washed (in groups of 4) as follows: 1×10% TCA, 2×5% TCA, and 2×ethanol using fresh wash medium for each set of replicates to avoid cross contamination. The dried filters were placed in 20 ml scintillation vials and the radioactivity counted in 15 ml Optiphase.
The inhibition constants of two compounds were measured and the results compared with the values obtained using the standard ^3 H-isoleucine assay.

The target of assay [2] is T1, E. coli ITRS (isoleucyl-tRNA synthetase). Kind of assay: Colorimetric assay based on valine as substrate (valine-based assay of the invention). The assay is classed as biochemical. The settings on record: 15 mM valine, 0.75 mM ATP, 37° C., read-out: Concentration giving 50% inhibition (I50). Here is the method:
2. Measurement of ITRS activity using a Colorimetric Assay based on using Valine as Substrate
Incubations were set up in quadruplicate (as above) with a final volume of 200 μl as described below. Stock reagents used in the method were as follows:
as §1, §2
The standard assay (in 200 μl) was carried out in quadruplicate in Eppendorf microcentrifuge tubes. The ingredients were pre-incubated for 2-3 minutes at 37° C. and the reaction started by addition of 20 μl of appropriately diluted enzyme extract (as described above).
Thus the final reaction contained reagents in the following concentrations:
0.12 mg of mixed tRNA species from E. coli (as described above) HPLC purified from […] available from by Sigma (UK) Ltd 1 unit/μl of inorganic pyrophosphatase and
an appropriate concentration of ITRS (for example […] of the enzyme as described above).
The samples were incubated at 37° C. for 20-60 minutes. […] The optical absorbance is then measured at a wavelength of 630 nm using a spectrophotometer.

T1 sequence (P00956 whole entry): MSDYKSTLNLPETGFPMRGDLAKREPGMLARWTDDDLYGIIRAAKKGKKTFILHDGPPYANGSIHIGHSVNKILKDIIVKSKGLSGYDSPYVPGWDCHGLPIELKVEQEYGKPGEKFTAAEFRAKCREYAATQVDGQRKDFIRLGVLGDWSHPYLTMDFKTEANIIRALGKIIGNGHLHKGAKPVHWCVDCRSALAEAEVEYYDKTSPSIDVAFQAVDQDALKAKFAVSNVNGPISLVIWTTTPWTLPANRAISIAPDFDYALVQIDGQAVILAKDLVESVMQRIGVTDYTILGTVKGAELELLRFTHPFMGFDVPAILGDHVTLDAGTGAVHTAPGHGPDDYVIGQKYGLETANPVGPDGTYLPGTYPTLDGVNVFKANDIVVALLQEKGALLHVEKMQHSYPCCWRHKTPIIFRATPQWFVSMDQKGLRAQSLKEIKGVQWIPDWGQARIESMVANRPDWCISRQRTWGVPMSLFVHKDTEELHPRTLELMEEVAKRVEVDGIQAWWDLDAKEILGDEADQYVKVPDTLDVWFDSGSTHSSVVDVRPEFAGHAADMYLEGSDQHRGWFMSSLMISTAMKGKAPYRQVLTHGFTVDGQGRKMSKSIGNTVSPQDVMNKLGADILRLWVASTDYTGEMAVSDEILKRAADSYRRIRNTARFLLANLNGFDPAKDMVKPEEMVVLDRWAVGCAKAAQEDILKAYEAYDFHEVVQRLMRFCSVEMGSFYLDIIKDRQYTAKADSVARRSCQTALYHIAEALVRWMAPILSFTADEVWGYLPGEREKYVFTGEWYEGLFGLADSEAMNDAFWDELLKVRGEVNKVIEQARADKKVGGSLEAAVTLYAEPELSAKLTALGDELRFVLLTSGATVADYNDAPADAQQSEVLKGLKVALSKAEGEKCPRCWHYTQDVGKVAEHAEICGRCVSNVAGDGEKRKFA

Turning to `CC(=O)C(C)C1OC1CC1COC(CC(C)=CC(=O)O)C(O)C1O` (stereo not shown) [Compound 1], the IC50 was 0.109 µM in assay [1] and 2 µM in assay [2]. Further, the Mode of inhibition entry in assay [1] is recorded as “competitive with respect to isoleucine”; in assay [1] (listed as compound 1), “competitive with the amino acid”.
For the compound `C=COCCOC(=O)C=C(C)CC1OCC(CC2OC2C(C)C(C)O)C(O)C1O` (stereo not shown) [Compound 2], in assay [1], the IC50 worked out at 0.0023 µM and the Mode of inhibition entry was “competitive with the amino acid”. For the same compound, the IC50 in assay [2] worked out at 0.038 µM.

Source of the values: patent publication US5985630A, “Assay for detecting inhibitors of aminoacyl-tRNA synthetases” (Zeneca Limited, priority 1993, dated 1999).
